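Five compound concentrations were applied to cells in 96-well plates for 48 hours; endpoints were derived by simple linear interpolation of the resulting dose-response curve. GI50: concentration for 50% inhibition of growth.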 Calls of active or inactive are those of the source. Cut-off read from the data, not from the text of the source: active = GI50 up to about 1.1 µM and inactive = higher. Non-standard residues stand in square brackets, D forms with d. Residues, ends and D or L forms follow the SMILES beside them. ξ: configuration not given here. *: point of attachment. ξHyp = O=C(O)C1CC(O)CN1; Cbz = O=C(OCc1ccccc1)*
Key:
Test in all cases: NCI-60 cell line screen, 48 h
SW-620 = test system: SW-620
786-0 = test system: 786-0
NCI-H522 = test system: NCI-H522
U-251 = test system: U-251
HL-60 = test system: HL-60
BT-549 = test system: BT-549
SK-MEL-5 = test system: SK-MEL-5
EKVX = test system: EKVX
OVCAR-8 = test system: OVCAR-8
UACC-62 = test system: UACC-62
NCI-H460 = test system: NCI-H460
OVCAR-4 = test system: OVCAR-4
PC-3 = test system: PC-3
TK-10 = test system: TK-10
ACHN = test system: ACHN
SNB-75 = test system: SNB-75
T47D = test system: T47D
HCC 2998 = test system: HCC 2998
Hs-578T = test system: Hs-578T
UO-31 = test system: UO-31

Measured: GI50

S=c1nc(Nc2ccccc2)c2c3c(sc2[nH]1)CCCC3
inactive: SW-620 > 100 µM | 786-0 > 100 µM | NCI-H522 71.4 µM | U-251 > 100 µM | HL-60 > 100 µM | BT-549 > 100 µM | SK-MEL-5 > 100 µM | EKVX 2.32 µM | OVCAR-8 > 100 µM | UACC-62 > 100 µM | NCI-H460 > 100 µM | OVCAR-4 > 100 µM | PC-3 > 100 µM | TK-10 > 100 µM | ACHN > 100 µM | SNB-75 > 100 µM | T47D > 100 µM | HCC 2998 > 100 µM | Hs-578T > 100 µM | UO-31 > 100 µM

O=C(O)c1ccc(NC(c2ccccc2)c2ccc3cccnc3c2O)cc1 (stereo not given)
inactive: SW-620 5.77 µM | 786-0 6.04 µM | NCI-H522 4.06 µM | U-251 4.17 µM | HL-60 2.65 µM | BT-549 10 µM | SK-MEL-5 6.65 µM | EKVX 7.85 µM | OVCAR-8 3.85 µM | UACC-62 6.58 µM | NCI-H460 4.09 µM | OVCAR-4 4.63 µM | PC-3 9.57 µM | TK-10 13.7 µM | ACHN 8.41 µM | SNB-75 11.6 µM | T47D 10.9 µM | HCC 2998 13 µM | Hs-578T 28.5 µM | UO-31 5.75 µM

COC(=O)C1Cc2cc3c(cc2C1=O)CCCC3 (stereo not given)
inactive: SW-620 47 µM | 786-0 66.5 µM | NCI-H522 80.5 µM | U-251 43.5 µM | HL-60 29.2 µM | BT-549 22.3 µM | SK-MEL-5 48 µM | EKVX 46.8 µM | OVCAR-8 46.6 µM | UACC-62 > 100 µM | NCI-H460 > 100 µM | OVCAR-4 64.9 µM | PC-3 30.8 µM | TK-10 28 µM | ACHN 94.6 µM | SNB-75 70.3 µM | T47D 37.6 µM | HCC 2998 > 100 µM | Hs-578T 48.4 µM | UO-31 51.9 µM

NC(=O)CNC(=O)C1CC(O)CN1C(=O)OCc1ccccc1 (stereo not given) (Cbz-[ξHyp]-Gly-NH2)
inactive: SW-620 > 100 µM | 786-0 > 100 µM | NCI-H522 > 100 µM | U-251 > 100 µM | HL-60 > 100 µM | BT-549 > 100 µM | SK-MEL-5 > 100 µM | EKVX 41.4 µM | OVCAR-8 > 100 µM | UACC-62 > 100 µM | NCI-H460 > 100 µM | OVCAR-4 > 100 µM | PC-3 > 100 µM | TK-10 > 100 µM | ACHN > 100 µM | SNB-75 > 100 µM | T47D > 100 µM | HCC 2998 > 100 µM | Hs-578T > 100 µM | UO-31 > 100 µM
